Assay results published in paper PMC12534982 (Journal of Experimental & Clinical Cancer Research : CR, 2025).

How the values were obtained:
[1] = tested on: human DHODH; conditions: cited from earlier work
[2] = target: T1, Δ29 DHODH (N-truncated) (Homo sapiens, UniProt Q02127); assay: In vitro DHODH enzyme activity assay; type: biochemical; conditions: 1 mM DHO; ± SD
T1 construct: N-terminal truncated form of human DHODH (Δ29), where the N-terminal transmembrane domain was removed; made in house
Protocol: The assays to determine the inhibition constants of inhibitors of the recombinant DHODH enzymes are described in [28, 29].
The IC50 values were determined by fitting the equation V = V max/(1 + (I/IC50)^h) to the assay data using SigmaPlot14 (Systat Software Inc.). In this equation, V represents the measured enzyme activity, while V max indicates the maximum enzyme activity reached. I denotes the inhibitor concentration, and h describes the slope of the fitted curve.

[3] = tested on: colorectal cancer cells; assay: Western blot; type: cell-based, human; conditions: NK-A 17E-233I 25 µM; Brequinar
Protocol: Cancer cells (2.2 × 10^6) were cultured in 100-mm Petri dishes and treated with DMSO or NK-A 17E-233I (25 µM) for 48 h. Cells were harvested by scrapping into 2 × Laemmli buffer (4% SDS, 20% glycerol, 125 mM Tris–HCl, pH 6.8) and heated at 100 °C for 5 min. A 4 × Laemmli sample buffer containing β-mercaptoethanol was added to the cell lysates. The proteins were separated using sodium dodecyl sulfate polyacrylamide gel electrophoresis (SDS-PAGE) and subsequently transferred to polyvinylidene fluoride (PVDF) membranes (#88518; Thermo Fisher Scientific) following the manufacturer’s protocols. The membranes were blocked at room temperature for 1 h with 5% dried skimmed milk in Tris-buffered saline with Tween-20 (TBS-T) (20 mM Tris–HCl, pH 7.5, 150 mM NaCl, 0.1% Tween-20), and the blots were incubated with the corresponding antibodies at a dilution of 1:1000–1:3000 in a blocking buffer at 4 °C overnight.
Primary antibodies utilized in this study included: anti-human DHODH (#SC-166348; Santa Cruz), anti–CHK1-pS345 (#2348; Cell Signaling), anti-POLD2 (#29765–1-AP; Proteintech), anti-POLD1 (#15646–1-AP; Proteintech), anti-p53 (#SC-126; Santa Cruz), anti-KRAS, clone 4F3 (#SAB1404011; Sigma-Aldrich), anti-GAPDH (#ab9489; Abcam), anti–α-tubulin (#T9026; Sigma-Aldrich), anti-BAX (#SC-23959; Santa Cruz), anti-cytochrome c (#66264–1-IG; Proteintech), anti-DR5 (#3696; Cell Signaling, dilution 1:500), anti–caspase-8 (#SC-56070; Santa Cruz), and anti–caspase-3 (#9662; Cell Signaling, dilution 1:500). The membranes were incubated at room temperature for 1 h with secondary antibodies (diluted 1:3000–5000), either anti-rabbit (#A0545; Sigma-Aldrich) or anti-mouse IgG-horseradish peroxidase-conjugated (#A9044; Sigma-Aldrich), in TBS-T. The images were analyzed and quantified using ImageStudio software (LI-COR) or ImageQuant 10.2 TL analysis software (Cytiva Life Sciences).

[4] = tested on: SW620 cells; assay: Mitochondrial respiration (OCR) in intact cells; type: cell-based, human; conditions: 24 h
Protocol: Oxygen consumption rate (OCR) was measured using a high-resolution respirometer (Oxygraph-2k, Oroboros Instruments, Innsbruck, Austria). SW620 cells (2.2 × 10^6) were cultured in 100-mm Petri dishes and treated with DMSO or NK-A 17E-233I (25 µM) for 24 h. Cells were harvested at 80% confluency using 0.25% trypsin/EDTA and resuspended in complete DMEM at a concentration of 5 × 10^5 cells/mL. The cells were subsequently analyzed in two 2 mL Oxygraph chambers. Real-time measurements of OCR were conducted at 37 °C under basal conditions and following the sequential addition of inhibitors targeting various mitochondrial respiratory complexes: oligomycin (2.5 μM) to inhibit complex V (to assess ATP-linked respiration and leak rate), carbonyl cyanide-p-trifluoromethoxyphenylhydrazone (FCCP) with stepwise titration in 0.5 μM increments (to evaluate maximal electron transport system respiratory capacity and reserve capacity), and rotenone (0.5 μM) and antimycin A (2.5 μM) to inhibit complex I and complex III, respectively (to measure non-mitochondrial oxygen consumption). The values of OCR were normalized to mitochondrial DNA copy number, which was quantified by qPCR using the primers referenced above. Data analysis was performed using DatLab7 (Oroboros, Austria) software.

[5] = tested on: SW620 cells; assay: Complex I- and complex II-dependent respiration (permeabilized cells); type: cell-based, human; conditions: 100 µM, 24 h
Protocol: Following treatment, cells were detached using trypsin–EDTA, washed with PBS, and resuspended in MiR05 media (composed of 110 mM sucrose, 60 mM potassium-lactobionate, 0.5 mM EGTA, 3 mM MgCl2·6H2O, 20 mM taurine, 10 mM KH2PO4, 20 mM HEPES adjusted to pH 7.1 with KOH at 37 °C, and 1 g/L BSA) at a concentration of 5 × 10^5 cells/mL. The cells were then transferred into 2 mL Oxygraph chambers for real-time measurement of OCR. Initial permeabilization was achieved using 7 μg of digitonin, followed by the sequential addition of substrates and inhibitors: 5 mM ADP, 2 mM malate, 10 μM cytochrome c, 5 mM pyruvate, 10 mM glutamate, 10 mM succinate, 0.5 μM rotenone, and 2.5 μM antimycin A. Mitochondrial membrane integrity was confirmed through the addition of cytochrome c (10 μM), with observed changes in OCR remaining below 10%. Complex I-mediated respiration was evaluated following the addition of complex I substrates (malate/pyruvate/glutamate), while complex II-mediated respiration was assessed in the presence of the complex II substrate (succinate) and the complex I inhibitor (rotenone). Residual oxygen consumption after the addition of antimycin A was subtracted from all the results to yield mitochondria-specific rates. […] Oxygen consumption rates were expressed as picomoles (pmol) per second per million cells (Mill) and normalized to the mitochondrial copy number in each sample.

[6] = tested on: SW620 cells; assay: DHODH-dependent respiration (permeabilized cells); type: cell-based, human; conditions: 24 h; NK-A 17E-233I 25 µM, Brequinar 100 µM; excess exogenous DHO
Protocol: Cells were resuspended in MiR05 medium and transferred into the chambers of the Oxygraph-2k instruments. The OCR in digitonin-permeabilized cells was monitored in the presence of the complex I inhibitor (0.5 μM rotenone), 1 mM DHO, 3 mM ADP, 10 μM cytochrome c, and 30 μM Leflunomide. DHODH-mediated respiration was calculated by subtracting the residual respiration rate after the addition of 30 μM Leflunomide from the respiration rate measured in the presence of 0.5 μM rotenone, 1 mM DHO, 3 mM ADP, and 10 μM cytochrome c.

[7] = tested on: SW620 cells; conditions: 96 h
[8] = tested on: DHODH; parameters: method as in PMID 35184687; conditions: 100 µM; same experimental setup; cited from earlier work
[9] = tested on: colorectal cancer cells; assay: Flow cytometry-based cell cycle analysis; parameters: species or system human; conditions: washout 12 h; NK-A 17E-233I 25 µM, HU 1 mM
Protocol: Cancer cells (3 × 10^4) were cultured in 48-well plates and treated with DMSO or NK-A 17E-233I (25 µM) for 24 h. Following treatment, all wells were washed with PBS (#P4417; Sigma-Aldrich), and the cells were collected in Eppendorf tubes. The cells were harvested using 0.25% trypsin (#25200056; ThermoScientific) and 0.02% EDTA (1:1) (#17892; ThermoFisher Scientific) for 2 min, followed by the addition of DMEM. The tubes were then centrifuged at 500 × g for 5 min. The supernatant was discarded, and the pellets were fixed in 70% cold ethanol and stored at -20 °C for at least 1 h. The pellets were resuspended in 1 mL PBS and centrifuged at 500 × g at 4 °C for 5 min. The supernatant was discarded once again, and the pellets were subsequently reconstituted in a solution containing propidium iodide (PI; #25,535–16-4, Merck) and RNase (#N8080119, Applied Biosystems), followed by storage at 4 °C overnight. Cell cycle analysis was conducted using a CytoFLEX flow cytometer (Beckman Coulter; 405 nm laser). Cells were gated based on size and granularity on a forward scatter (FSC)/side scatter (SSC) plot, with cell debris excluded from the analysis. Mean fluorescence intensity from 1 × 10^4 cells was recorded. Data analysis was conducted using FlowJo software v10.8.1 (BD Life Sciences).

T1 sequence (Q02127 29-395, stated change not applied): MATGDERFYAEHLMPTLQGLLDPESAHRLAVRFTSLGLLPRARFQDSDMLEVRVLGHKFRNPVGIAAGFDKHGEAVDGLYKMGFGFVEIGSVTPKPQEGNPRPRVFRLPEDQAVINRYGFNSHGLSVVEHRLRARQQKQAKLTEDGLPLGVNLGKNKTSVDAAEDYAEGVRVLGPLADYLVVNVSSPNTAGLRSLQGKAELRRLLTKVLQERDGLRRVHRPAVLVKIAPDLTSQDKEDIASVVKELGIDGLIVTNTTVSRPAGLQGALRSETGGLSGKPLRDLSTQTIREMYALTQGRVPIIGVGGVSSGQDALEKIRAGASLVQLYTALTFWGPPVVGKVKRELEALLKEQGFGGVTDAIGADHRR

Q: Which “mode of inhibition with respect to DHO” value [1] does the source give for `O=C1C(O)=C([C@H]2CC[C@H](c3ccc(Cl)cc3)CC2)C(=O)c2ccccc21` [Atovaquone] here?
A: Its value is “uncompetitive inhibitors”.

Q: With `Cc1c(-c2ccc(-c3ccccc3F)cc2)nc2ccc(F)cc2c1C(=O)O` [Brequinar, reference compound] as the compound, how does the “average of the fitted slopes” value [2] read?
A: The value was 1.1 ± 0.2.

Q: And the “levels of p53-mutant protein” value [3]?
A: The value was “did not have an observed effect”.

Q: What about the “parameters of mitochondrial respiration in intact cells” value ([4]; 100 µM) of the same compound?
A: The value was “decreased most of these respiration parameters”.

Q: And the “basal and ATP-linked respiration in intact cells” value ([4]; NK-A 17E-233I 25 µM, Brequinar 100 µM)?
A: Its value is “significantly decreased”.

Q: And the “complex II-mediated respiration” value [5]?
A: The value was “stimulated”.

Q: And the “DHODH-mediated oxygen consumption rate” value [6]?
A: Its value is “reduced”.

Q: And the IC50 [7]?
A: Its IC50 is 100 µM.

Q: With `O=C1CC(C(=O)O)NC(=O)N1` (stereo not drawn) [DHO, dihydroorotate] as the compound, how does the ΔTm [8] read?
A: Its ΔTm is 3.5 °C.

Q: Which “cell cycle after washout” value [9] does the source give for `NC(=O)NO` [HU, hydroxyurea, reference compound] here?
A: The value was “resumed proliferation”.

Q: For `C/C(O)=C(\C#N)C(=O)Nc1ccc(C(F)(F)F)cc1` [Teriflunomide], which “mode of inhibition with respect to DHO” value [1] is on record?
A: The value was “uncompetitive inhibitors”.

Q: For `O=C(O)c1cc(=O)[nH]c(=O)[nH]1` [orotate], which Ki ([1]; competitive inhibitor concerning DHO) is on record?
A: The Ki was 11 µM.
